Data as given in publication PMC12797502, “Effects of emodepside on single-channel properties of Onchocerca volvulus SLO-1A (BK) potassium channels” (Parasites & Vectors, 2025).

Target: T1, Ovo-SLO-1A (Onchocerca volvulus, UniProt A0A2K6W0E9)
T1 construct: T2A-linked GFP as transfection marker; homotetramer; Ala350 printed in S6 (natural residue)
Assay: inside-out and whole-cell patch clamp, transfected HEK293 cells
Assay type: biochemical
Details: activator; 0.3 µM (inside-out, +20 mV, 100 µM free Ca2+, bath pH 7.2) or 1 µM (whole-cell, +20 mV); room temperature; empty-vector control

T1 sequence (A0A2K6W0E9 1-1119): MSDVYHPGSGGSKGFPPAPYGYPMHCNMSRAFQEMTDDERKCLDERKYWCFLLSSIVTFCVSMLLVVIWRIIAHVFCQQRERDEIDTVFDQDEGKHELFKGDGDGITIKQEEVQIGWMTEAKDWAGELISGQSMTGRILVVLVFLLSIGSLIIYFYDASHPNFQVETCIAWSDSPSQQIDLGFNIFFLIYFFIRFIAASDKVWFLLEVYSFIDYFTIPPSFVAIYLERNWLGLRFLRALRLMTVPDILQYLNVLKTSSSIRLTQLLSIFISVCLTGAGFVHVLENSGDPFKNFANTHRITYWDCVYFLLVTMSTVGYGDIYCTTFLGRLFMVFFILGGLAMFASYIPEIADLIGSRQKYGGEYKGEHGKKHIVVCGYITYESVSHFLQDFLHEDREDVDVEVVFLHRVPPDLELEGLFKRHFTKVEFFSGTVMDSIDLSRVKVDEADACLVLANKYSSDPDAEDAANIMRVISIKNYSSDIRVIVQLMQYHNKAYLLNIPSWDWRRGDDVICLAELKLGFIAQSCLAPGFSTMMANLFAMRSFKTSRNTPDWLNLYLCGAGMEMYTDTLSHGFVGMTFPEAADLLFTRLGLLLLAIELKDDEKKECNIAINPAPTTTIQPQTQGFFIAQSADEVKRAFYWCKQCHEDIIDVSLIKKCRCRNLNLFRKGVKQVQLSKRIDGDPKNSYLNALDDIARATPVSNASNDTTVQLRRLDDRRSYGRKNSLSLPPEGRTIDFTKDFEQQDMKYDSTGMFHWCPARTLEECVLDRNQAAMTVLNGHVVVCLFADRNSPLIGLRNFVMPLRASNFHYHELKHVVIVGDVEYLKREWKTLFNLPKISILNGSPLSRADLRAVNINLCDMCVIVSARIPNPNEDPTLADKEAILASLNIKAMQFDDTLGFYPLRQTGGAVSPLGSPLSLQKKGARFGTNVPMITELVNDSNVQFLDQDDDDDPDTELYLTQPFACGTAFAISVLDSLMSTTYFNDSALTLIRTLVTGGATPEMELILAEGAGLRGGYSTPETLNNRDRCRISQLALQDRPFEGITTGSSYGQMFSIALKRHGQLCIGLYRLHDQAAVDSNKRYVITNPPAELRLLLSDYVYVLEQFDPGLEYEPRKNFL

## CC(C)C[C@H]1C(=O)O[C@H](Cc2ccc(N3CCOCC3)cc2)C(=O)N(C)[C@@H](CC(C)C)C(=O)O[C@H](C)C(=O)N(C)[C@@H](CC(C)C)C(=O)O[C@H](Cc2ccc(N3CCOCC3)cc2)C(=O)N(C)[C@@H](CC(C)C)C(=O)O[C@H](C)C(=O)N1C [Emodepside]
  inside-out and whole-cell patch clamp, transfected HEK293 cells: The probability of the channel being open, Popen, significantly increased
